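Results reflect a 48-hour exposure of cells in 96-well plates to compound at five concentrations. Here, GI50 denotes the concentration required for 50% inhibition of growth. TGI is the concentration that stops growth completely.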
Tests used:
Assay in all cases: NCI-60 cell line screen, 48 h; in the data active = GI50 below about 0.43 µM; inactive = the rest
A498 renal = test system: A498 renal
HCT-15 colon = test system: HCT-15 colon
NCI-H23 lung = test system: NCI-H23 lung
NCI-H522 lung = test system: NCI-H522 lung
SK-MEL-5 melanoma = test system: SK-MEL-5 melanoma
TK-10 renal = test system: TK-10 renal
U251 CNS = test system: U251 CNS
MCF7 breast = test system: MCF7 breast
SW-620 colon = test system: SW-620 colon
EKVX NSCLC = test system: EKVX NSCLC

O=C(NN1C(=O)C(Cl)C1c1c(O)ccc2ccccc12)c1ccccc1O (stereo unspecified)
> 100 µM: TGI (A498 renal) | TGI (HCT-15 colon) | TGI (NCI-H23 lung) | TGI (NCI-H522 lung) | TGI (SK-MEL-5 melanoma) | TGI (TK-10 renal) | TGI (U251 CNS)

O=C(Nc1ccc(Br)cc1)Nc1cccc(Br)c1
inactive: GI50 (A498 renal) 4.81 µM | GI50 (MCF7 breast) 3.2 µM | GI50 (SK-MEL-5 melanoma) > 100 µM | GI50 (SW-620 colon) 5.54 µM
> 100 µM: TGI (A498 renal) | TGI (MCF7 breast) | TGI (SK-MEL-5 melanoma) | TGI (SW-620 colon)

CC(C)(C)c1cc(C(OCCl)(C(F)(F)F)C(F)(F)F)c2c(c1)C(C(F)(F)F)(C(F)(F)F)OC21c2ccccc2C(=O)c2ccccc21
> 100 µM: TGI (EKVX NSCLC) | TGI (HCT-15 colon) | TGI (NCI-H23 lung) | TGI (NCI-H522 lung) | TGI (SK-MEL-5 melanoma) | TGI (SW-620 colon) | TGI (TK-10 renal) | TGI (U251 CNS)

CC(=O)OC1COC(Oc2c(C)c3c4c(c2O)[C@@H](C)CC[C@@H]4[C@@H](C)C[C@H]3C=C(C)C)C(O)C1O (stereo partly specified)
> 100 µM: TGI (MCF7 breast) | TGI (NCI-H522 lung)
30 µM: TGI (A498 renal)
inactive: GI50 (A498 renal) 14.7 µM | GI50 (HCT-15 colon) 17.9 µM | GI50 (MCF7 breast) 20.7 µM | GI50 (NCI-H23 lung) 16.6 µM | GI50 (NCI-H522 lung) 30.5 µM | GI50 (SK-MEL-5 melanoma) 16.4 µM | GI50 (TK-10 renal) 16.3 µM | GI50 (U251 CNS) 19.5 µM
33.2 µM: TGI (NCI-H23 lung)
41.6 µM: TGI (U251 CNS)
31 µM: TGI (TK-10 renal)
34.1 µM: TGI (SK-MEL-5 melanoma)
37.9 µM: TGI (HCT-15 colon)

CN(C)CCNC(=O)c1cccc2cc3ccc4ccccc4c3nc12
0.28 µM: TGI (NCI-H522 lung)
0.0693 µM: TGI (A498 renal)
0.904 µM: TGI (TK-10 renal)
0.593 µM: TGI (HCT-15 colon)
0.663 µM: TGI (U251 CNS)
0.358 µM: TGI (SK-MEL-5 melanoma)
1.19 µM: TGI (SW-620 colon)
0.495 µM: TGI (EKVX NSCLC)
0.39 µM: TGI (NCI-H23 lung)

COC(=O)c1cc2ccccc2c2nc3ccccc3c(Cl)c12
> 100 µM: TGI (A498 renal) | TGI (EKVX NSCLC) | TGI (HCT-15 colon) | TGI (NCI-H23 lung) | TGI (NCI-H522 lung) | TGI (SK-MEL-5 melanoma) | TGI (SW-620 colon) | TGI (TK-10 renal) | TGI (U251 CNS)

CC1(C)OC2OC(COC(=O)C(c3ccccc3)c3ccccc3)C3OC(C)(C)OC3C2O1 (stereo unspecified)
24.4 µM: TGI (SK-MEL-5 melanoma)
inactive: GI50 (A498 renal) > 100 µM | GI50 (EKVX NSCLC) > 100 µM | GI50 (TK-10 renal) > 100 µM
> 100 µM: TGI (A498 renal) | TGI (EKVX NSCLC) | TGI (HCT-15 colon) | TGI (NCI-H23 lung) | TGI (NCI-H522 lung) | TGI (SW-620 colon) | TGI (TK-10 renal)

O=c1[nH]c(=O)n(C2CC(O)C(O)C(CO)O2)cc1F (stereo unspecified)
> 100 µM: TGI (A498 renal) | TGI (EKVX NSCLC) | TGI (HCT-15 colon) | TGI (NCI-H23 lung) | TGI (NCI-H522 lung) | TGI (SW-620 colon) | TGI (TK-10 renal) | TGI (U251 CNS)

Nc1c(C(=O)Nc2ccccn2)sc2nc3c(cc12)CCCCCC3
11.1 µM: TGI (HCT-15 colon)
> 50 µM: TGI (NCI-H23 lung) | TGI (NCI-H522 lung)
7.22 µM: TGI (SK-MEL-5 melanoma)
10.2 µM: TGI (MCF7 breast)
9.07 µM: TGI (U251 CNS)
inactive: GI50 (EKVX NSCLC) 4.1 µM | GI50 (NCI-H23 lung) 2.25 µM | GI50 (NCI-H522 lung) 1.79 µM | GI50 (SK-MEL-5 melanoma) 0.906 µM | GI50 (TK-10 renal) 2.87 µM | GI50 (U251 CNS) 0.97 µM
23.3 µM: TGI (EKVX NSCLC)
22.7 µM: TGI (SW-620 colon)
active: GI50 (HCT-15 colon) 0.254 µM | GI50 (MCF7 breast) 0.179 µM | GI50 (SW-620 colon) 0.389 µM
10.3 µM: TGI (TK-10 renal)

Nc1ncnc2c1ncn2CCOC(c1ccccc1)P(=O)(O)O (stereo unspecified)
> 100 µM: TGI (A498 renal) | TGI (EKVX NSCLC) | TGI (HCT-15 colon) | TGI (NCI-H23 lung) | TGI (NCI-H522 lung) | TGI (SK-MEL-5 melanoma) | TGI (SW-620 colon) | TGI (TK-10 renal) | TGI (U251 CNS)

CC(C)=CC(=O)CC(=O)C(=O)NCCNC(=O)C(=O)CC(=O)C=C(C)C
> 50 µM: TGI (A498 renal) | TGI (EKVX NSCLC) | TGI (HCT-15 colon) | TGI (NCI-H23 lung) | TGI (SW-620 colon) | TGI (TK-10 renal) | TGI (U251 CNS)

C1CCN2CC3CONC3C2C1 (stereo unspecified)
> 100 µM: TGI (A498 renal) | TGI (EKVX NSCLC) | TGI (HCT-15 colon) | TGI (NCI-H23 lung) | TGI (NCI-H522 lung) | TGI (SK-MEL-5 melanoma) | TGI (SW-620 colon) | TGI (TK-10 renal) | TGI (U251 CNS)

CC1(C)CC(O)CC(C)(C)N1.CC1(C)CC(O)CC(C)(C)N1.CC1(C)CC(O)CC(C)(C)N1.CC1(C)CC(O)CC(C)(C)N1.Cl.[Ti]
inactive: GI50 (A498 renal) > 100 µM | GI50 (HCT-15 colon) > 100 µM | GI50 (NCI-H23 lung) > 100 µM | GI50 (NCI-H522 lung) > 100 µM | GI50 (SK-MEL-5 melanoma) > 100 µM | GI50 (SW-620 colon) > 100 µM | GI50 (TK-10 renal) > 100 µM | GI50 (U251 CNS) > 100 µM
> 100 µM: TGI (A498 renal) | TGI (HCT-15 colon) | TGI (NCI-H23 lung) | TGI (NCI-H522 lung) | TGI (SK-MEL-5 melanoma) | TGI (SW-620 colon) | TGI (TK-10 renal) | TGI (U251 CNS)

COc1ccc2nc(-c3ccc(O)cc3)ccc2c1
> 100 µM: TGI (EKVX NSCLC) | TGI (NCI-H23 lung) | TGI (NCI-H522 lung) | TGI (SK-MEL-5 melanoma) | TGI (SW-620 colon) | TGI (TK-10 renal)

C1=C(c2ccccc2)C(OC2Oc3ccccc3C=C2c2ccccc2)Oc2ccccc21 (stereo unspecified)
45.1 µM: TGI (U251 CNS)
> 100 µM: TGI (A498 renal) | TGI (EKVX NSCLC) | TGI (HCT-15 colon) | TGI (NCI-H23 lung) | TGI (NCI-H522 lung) | TGI (SK-MEL-5 melanoma) | TGI (SW-620 colon) | TGI (TK-10 renal)

COc1cc2c3c(n(CCCN4CCSCC4)c(=O)c2cc1OC)-c1cc2c(cc1C3=O)OCO2
inactive: GI50 (EKVX NSCLC) > 100 µM | GI50 (HCT-15 colon) > 100 µM | GI50 (MCF7 breast) 61.4 µM | GI50 (NCI-H23 lung) > 100 µM | GI50 (NCI-H522 lung) 19.9 µM | GI50 (SK-MEL-5 melanoma) > 100 µM | GI50 (SW-620 colon) 96.8 µM | GI50 (TK-10 renal) 27.2 µM | GI50 (U251 CNS) > 100 µM
82.9 µM: TGI (TK-10 renal)
65.4 µM: TGI (NCI-H522 lung)
> 100 µM: TGI (EKVX NSCLC) | TGI (HCT-15 colon) | TGI (MCF7 breast) | TGI (NCI-H23 lung) | TGI (SK-MEL-5 melanoma) | TGI (SW-620 colon) | TGI (U251 CNS)

O=C1c2ccccc2-c2c1c1ccc([N+](=O)[O-])cc1c(=O)n2CCCCl
> 100 µM: TGI (EKVX NSCLC) | TGI (HCT-15 colon) | TGI (MCF7 breast) | TGI (NCI-H522 lung) | TGI (SW-620 colon) | TGI (TK-10 renal) | TGI (U251 CNS)
inactive: GI50 (EKVX NSCLC) > 100 µM | GI50 (HCT-15 colon) > 100 µM | GI50 (MCF7 breast) 1.12 µM | GI50 (NCI-H23 lung) 3.52 µM | GI50 (NCI-H522 lung) 86.8 µM | GI50 (SK-MEL-5 melanoma) 0.874 µM | GI50 (SW-620 colon) 3.12 µM | GI50 (TK-10 renal) 37.8 µM | GI50 (U251 CNS) 3.08 µM
54.1 µM: TGI (NCI-H23 lung)
5.89 µM: TGI (SK-MEL-5 melanoma)

C/C(CC(=O)Nc1cccc(Cl)c1C)=N\N=C(N)N
> 100 µM: TGI (A498 renal) | TGI (EKVX NSCLC) | TGI (HCT-15 colon) | TGI (NCI-H23 lung) | TGI (NCI-H522 lung) | TGI (SK-MEL-5 melanoma) | TGI (TK-10 renal) | TGI (U251 CNS)

O=c1c2cccc3cccc(c4n1CCCN=4)c32
> 100 µM: TGI (A498 renal) | TGI (EKVX NSCLC) | TGI (HCT-15 colon) | TGI (NCI-H23 lung) | TGI (NCI-H522 lung) | TGI (SK-MEL-5 melanoma) | TGI (SW-620 colon) | TGI (TK-10 renal) | TGI (U251 CNS)

Nc1c(C(=O)Nc2ccccc2O)[n+]([O-])c2ccccc2[n+]1[O-]
84.7 µM: TGI (NCI-H23 lung)
48.6 µM: TGI (SW-620 colon)
> 100 µM: TGI (A498 renal) | TGI (EKVX NSCLC) | TGI (HCT-15 colon) | TGI (NCI-H522 lung) | TGI (U251 CNS)
28.3 µM: TGI (SK-MEL-5 melanoma)
